Literature values in patent US20040126415A1, “Dermal delivery of a water-soluble selective cyclooxygenase-2 inhibitor” (priority 2002, published 2004).

What was measured:
COX-1 = COX-1 (Homo sapiens, UniProt P23219)
COX-2 = target: T1, COX-2 (Homo sapiens, UniProt P35354)
T1 sequence (P35354 18-604): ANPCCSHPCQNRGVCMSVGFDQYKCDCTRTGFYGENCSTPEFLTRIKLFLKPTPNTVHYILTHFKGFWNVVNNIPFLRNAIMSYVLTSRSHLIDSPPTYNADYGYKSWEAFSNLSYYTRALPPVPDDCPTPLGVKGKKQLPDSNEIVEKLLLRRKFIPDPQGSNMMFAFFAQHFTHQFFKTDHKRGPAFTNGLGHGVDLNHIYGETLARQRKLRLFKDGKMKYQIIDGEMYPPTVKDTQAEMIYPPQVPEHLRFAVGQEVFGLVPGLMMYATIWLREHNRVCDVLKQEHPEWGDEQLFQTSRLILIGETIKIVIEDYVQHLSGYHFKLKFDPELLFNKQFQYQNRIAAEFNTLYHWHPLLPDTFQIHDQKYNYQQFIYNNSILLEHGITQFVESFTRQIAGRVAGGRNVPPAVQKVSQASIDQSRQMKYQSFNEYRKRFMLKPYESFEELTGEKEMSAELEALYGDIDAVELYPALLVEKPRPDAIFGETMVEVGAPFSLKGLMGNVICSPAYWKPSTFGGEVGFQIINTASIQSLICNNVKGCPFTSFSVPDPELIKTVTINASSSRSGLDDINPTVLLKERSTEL

COX-1, sequence (P23219 24-599): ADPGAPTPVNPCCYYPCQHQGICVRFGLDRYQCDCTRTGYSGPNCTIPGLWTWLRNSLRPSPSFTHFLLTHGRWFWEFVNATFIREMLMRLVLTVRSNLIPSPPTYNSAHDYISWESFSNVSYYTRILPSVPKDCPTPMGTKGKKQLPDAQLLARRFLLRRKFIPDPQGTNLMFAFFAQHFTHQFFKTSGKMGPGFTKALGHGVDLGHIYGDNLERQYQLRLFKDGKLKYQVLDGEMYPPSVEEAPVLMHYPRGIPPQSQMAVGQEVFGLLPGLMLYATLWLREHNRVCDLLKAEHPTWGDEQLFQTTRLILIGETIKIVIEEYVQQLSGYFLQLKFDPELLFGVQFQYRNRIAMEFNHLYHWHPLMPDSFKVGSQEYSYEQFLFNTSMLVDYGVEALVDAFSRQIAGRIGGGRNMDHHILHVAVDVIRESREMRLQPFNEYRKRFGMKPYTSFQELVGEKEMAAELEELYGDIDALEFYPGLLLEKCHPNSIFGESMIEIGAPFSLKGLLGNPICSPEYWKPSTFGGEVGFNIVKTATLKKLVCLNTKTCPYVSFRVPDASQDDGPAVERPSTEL

in vitro inhibitory activity against COX-2 (COX-2)	SMILES	in vitro inhibitory activity against COX-1 (COX-1)
weak in vitro inhibitory activity	CCC(=O)NS(=O)(=O)c1ccc(-c2c(-c3ccccc3)noc2C)cc1 [Parecoxib, N-[[4-(5-methyl-3-phenylisoxazol-4-yl)phenyl]sulfonyl]propanamide]	weak in vitro inhibitory activity
–	Cc1onc(-c2ccccc2)c1-c1ccc(S(N)(=O)=O)cc1 [valdecoxib, 4-[5-methyl-3-phenylisoxazol-4-yl]benzenesulfonamide]	weak inhibitor
